Source: patent US20100125059A1, “1-BIARYLAZETIDINONE DERIVATIVE” (Teijin Pharma Limited, priority 2007, published 2010)
Where two headings read alike, the source gives them in different places.

Test system: hamsters fed a high cholesterol diet
Assay: Measurement of lipid lowering effect in hamsters fed a high cholesterol diet
Format: in vivo, Male Golden Syrian hamsters
Settings: Mesocricetus auratus, po, 168 h, gavage once daily, 7 days
Description: Male Golden Syrian hamsters are divided into groups each consisting of 6 animals and fed a controlled high cholesterol diet (CE-2 containing 0.5% cholesterol; CLEA Japan, Inc.) for 28 days at most. From the start of feeding of the high cholesterol diet, the test compounds are administered by gavage once daily. For the administration, 0.2 mL of corn oil alone per 100 g (control group) or a solution (or suspension) of the test compound in corn oil at a dose of 0.01 to 10 mg/kg was given. At the same time, a group fed with a normal diet during the same study period is handled as a normal group. 4 hours after the last administration, whole blood is collected from the abdominal aorta under light anesthesia with ether and serum is separated from the blood. Further, livers are harvested, wet liver weights are measured, and part (about 0.5 g) of the harvested livers are extracted and weighed. 2-propanol in an amount 4 times the weight of the extracted livers are added, the resulted mixtures are homogenized, and the centrifuged supernatant are recovered and used as liver-derived samples.
Serum and liver TC concentrations are determined by an enzyme method using L-type Wako CHO•H (Wako Pure Chemical Industries Ltd.) or Cholestest CHO (Daiichi Pure Chemicals Co., Ltd.). Serum TG concentrations are determined by an enzyme method using L-type Wako TG•H (Wako Pure Chemical Industries Ltd.) or Autosera S TG-N (Daiichi Pure Chemicals Co., Ltd.) and a free glycerine elimination method. LDL-C concentrations are determined by a direct method using L-type Wako LDL-C•M (Wako Pure Chemical Industries Ltd.) or Cholestest LDL (Daiichi Pure Chemicals Co., Ltd.). Human serum was commonly used as a sample for the calibration curve for determinations of serum and liver TC concentrations, serum TG concentration, and serum LDL-C concentration. The effect of the test compound is shown by a suppression rate (%) of an increase in serum TC concentration due to feeding of the high cholesterol diet, a serum TG lowering rate (%), a suppression rate (%) of an increase in serum LDL-C concentration due to feeding of the high cholesterol diet, and a suppression rate (%) of an increase in liver TC concentration due to feeding of the high cholesterol diet calculated in accordance with the following equations.
In the Equation 2, A is the control group, B is the test compound group, and C is the normal group.
In the Equation 3, A is the control group, B is the test compound group, and C is the normal group.
In the Equation 4, A is the control group, B is the test compound group, and C is the normal group.
In the Equation 5, A is the control group, and B is the test compound group.
The following results were obtained from the study by this method on the effects of lowering serum TC, LDL-C, and TG, and liver TC in the hamsters fed with a high cholesterol diet which were given the test compounds for 7 days.
The compounds in which pyridyl of compound of example 51 and 55 was exchanged for phenyl, were used as comparative compound 1 and 2, respectively. In the same method as Example 112, the suppression rate (%) of an increase in serum TC concentration of comparative compound 1 and 2 were calculated.

[1] = read-out: serum LDL-C lowering effect (suppression rate of an increase in serum LDL-C concentration)
[2] = read-out: liver TC lowering effect (suppression rate of an increase in liver TC concentration)
[3] = read-out: serum TC lowering effect (suppression rate of an increase in serum TC concentration)
[4] = read-out: serum TG lowering effect (serum TG lowering rate)

| SMILES | inhibition in vivo at 0.1 mg/kg [1] [%] | inhibition in vivo at 0.01 mg/kg [3] [%] | inhibition in vivo at 0.1 mg/kg [4] [%] | other results |
| --- | --- | --- | --- | --- |
| O=C1[C@H](SC[C@H](O)c2ccc(F)cc2)[C@@H](c2ccc(O)c([N+](=O)[O-])c2)N1c1ccc(-c2cccnc2)cc1 [Example 42, (3R,4R)-3-[(2R)-2-(4-fluorophenyl)-2-hydroxyethylthio]-4-(4-hydroxy-3-nitrophenyl)-1-[4-(pyridin-3-yl)phenyl]azetidin-2-one] | ≥ 50 |  |  |  |
| O=C1[C@H](SC[C@H](O)c2ccc(F)cc2)[C@@H](c2ccc(O)cc2)N1c1ccc(-c2cnccn2)cc1 [Example 53, (3R,4R)-3-[(2R)-2-(4-fluorophenyl)-2-hydroxyethylthio]-4-(4-hydroxyphenyl)-1-[4-(pyrazin-2-yl)phenyl]azetidin-2-one] | ≥ 50 |  |  |  |
| COc1ccc([C@@H](O)CS[C@H]2C(=O)N(c3ccc(-c4cccnc4)cc3)[C@@H]2c2ccc(O)cc2)cc1 [Example 84, (3R,4R)-3-[(2R)-2-hydroxy-2-(4-methoxyphenyl)ethylthio]-4-(4-hydroxyphenyl)-1-[4-(pyridin-3-yl)phenyl]azetidin-2-one] |  |  |  | inhibition in vivo at 0.1 mg/kg [2]: ≥ 50% |
| O=C1[C@H](SC[C@H](O)c2ccc(Cl)cc2)[C@@H](c2ccc(O)cc2)N1c1ccc(-c2cncc(F)c2)cc1 [Example 70, (3R,4R)-3-[(2R)-2-(4-chlorophenyl)-2-hydroxyethylthio]-1-[4-(5-fluoropyridin-3-yl)phenyl]-4-(4-hydroxyphenyl)azetidin-2-one] |  | ≥ 30 |  | inhibition in vivo at 0.01 mg/kg [1]: ≥ 30%; inhibition in vivo at 0.1 mg/kg [2]: ≥ 50% |
| N#Cc1cncc(-c2ccc(N3C(=O)[C@H](SC[C@H](O)c4ccc(F)cc4)[C@H]3c3ccc(O)cc3O)cc2)c1 [Example 63, 5-(4-{(3R,4R)-3-[(2R)-2-(4-fluorophenyl)-2-hydroxyethylthio]-4-(2,4-dihydroxyphenyl)-2-oxoazetidinyl}phenyl)pyridine-3-carbonitrile] | ≥ 50 | ≥ 30 |  | inhibition in vivo at 0.01 mg/kg [2]: ≥ 30%; inhibition in vivo at 0.01 mg/kg [1]: ≥ 30%; inhibition in vivo at 0.1 mg/kg [3]: ≥ 50% |
| Cc1cncc(-c2ccc(N3C(=O)[C@H](SC[C@H](O)c4ccc(F)cc4)[C@H]3c3ccc(O)cc3)cc2)c1 [Example 68, (3R,4R)-3-[(2R)-2-(4-fluorophenyl)-2-hydroxyethylthio]-4-(4-hydroxyphenyl)-1-[4-(5-methylpyridin-3-yl)phenyl]azetidin-2-one] | ≥ 50 | ≥ 30 |  |  |
| N#Cc1ccc(-c2ccc(N3C(=O)[C@H](SC[C@H](O)c4ccc(Cl)cc4)[C@H]3c3ccc(O)cc3)cc2)cn1 [Example 60, 5-(4-{(3R,4R)-3-[(2R)-2-(4-chlorophenyl)-2-hydroxyethylthio]-4-(4-hydroxyphenyl)-2-oxoazetidinyl}phenyl)pyridine-2-carbonitrile] | ≥ 50 |  | ≥ 20 |  |
| O=C1[C@H](SC[C@H](O)c2ccc(Cl)cc2)[C@@H](c2ccc(O)cc2O)N1c1ccc(-c2cncc(C(F)(F)F)c2)cc1 [Example 75, (3R,4R)-3-[(2R)-2-(4-chlorophenyl)-2-hydroxyethylthio]-4-(2,4-dihydroxyphenyl)-1-[4-(5-trifluoromethylpyridin-3-yl)phenyl]azetidin-2-one] |  |  | ≥ 20 | inhibition in vivo at 0.01 mg/kg [2]: ≥ 30%; inhibition in vivo at 0.01 mg/kg [1]: ≥ 30%; inhibition in vivo at 0.1 mg/kg [2]: ≥ 50% |
| Cc1ccc(-c2ccc(N3C(=O)[C@H](SC[C@H](O)c4ccc(F)cc4)[C@H]3c3ccc(O)cc3O)cc2)cn1 [Example 95, (3R,4R)-3-[(2R)-2-(4-fluorophenyl)-2-hydroxyethylthio]-4-(2,4-dihydroxyphenyl)-1-[4-(6-methylpyridin-3-yl)phenyl]azetidin-2-one] |  | ≥ 30 |  | inhibition in vivo at 0.01 mg/kg [1]: ≥ 30% |
| O=C(CS[C@H]1C(=O)N(c2ccc(-c3cccnc3)cc2)[C@@H]1c1ccc(O)cc1)c1ccc(F)cc1 [Example 27, (3R,4R)-3-[2-(4-fluorophenyl)-2-oxoethylthio]-4-(4-hydroxyphenyl)-1-[4-(pyridin-3-yl)phenyl]azetidin-2-one] | ≥ 50 |  |  | inhibition in vivo at 0.1 mg/kg [3]: ≥ 50% |
| O=C1[C@H](SC[C@H](O)c2ccc(F)cc2)[C@@H](c2ccc(O)cc2O)N1c1ccc(-c2cccnc2)cc1 [Example 2, (3R,4R)-3-[(2R)-2-(4-fluorophenyl)-2-hydroxyethylthio]-4-(2,4-dihydroxyphenyl)-1-[4-(pyridin-3-yl)phenyl]azetidin-2-one] |  | ≥ 30 |  | inhibition in vivo at 0.01 mg/kg [2]: ≥ 30% |
| O=Cc1cc(-c2ccc(N3C(=O)[C@H](SC[C@H](O)c4ccc(F)cc4)[C@H]3c3ccc(O)cc3)cc2)cs1 [Example 67, 4-(4-{(3R,4R)-3-[(2R)-2-(4-fluorophenyl)-2-hydroxyethylthio]-4-(4-hydroxyphenyl)-2-oxoazetidinyl}phenyl)thiophene-2-carbaldehyde] |  |  | ≥ 20 |  |
| O=C1[C@H](SC[C@H](O)c2ccc(F)cc2)[C@@H](c2ccc(O)cc2O)N1c1ccc(-c2cncc(C(F)(F)F)c2)cc1 [Example 76, (3R,4R)-3-[(2R)-2-(4-fluorophenyl)-2-hydroxyethylthio]-4-(2,4-dihydroxyphenyl)-1-[4-(5-trifluoromethylpyridin-3-yl)phenyl]azetidin-2-one] |  | ≥ 30 |  |  |
| O=C1[C@H](SC[C@H](O)c2ccccc2F)[C@@H](c2ccc(O)cc2)N1c1ccc(-c2cccnc2)cc1 [Example 77, (3R,4R)-3-[(2R)-2-(2-fluorophenyl)-2-hydroxyethylthio]-4-(4-hydroxyphenyl)-1-[4-(pyridin-3-yl)phenyl]azetidin-2-one] |  |  | ≥ 20 |  |
| Cc1cc(O)ccc1[C@@H]1[C@@H](SC[C@H](O)c2ccc(F)cc2)C(=O)N1c1ccc(-c2cncc(C#N)c2)cc1 [Example 80, 5-(4-{(3R,4R)-3-[(2R)-2-(4-fluorophenyl)-2-hydroxyethylthio]-4-(4-hydroxy-2-methylphenyl)-2-oxoazetidinyl}phenyl)pyridine-3-carbonitrile] | ≥ 50 |  |  | inhibition in vivo at 0.1 mg/kg [3]: ≥ 50% |
| Cc1cncc(-c2ccc(N3C(=O)[C@H](SC[C@H](O)c4ccc(Cl)cc4)[C@H]3c3ccc(O)cc3O)cc2)c1 [Example 97, (3R,4R)-3-[(2R)-2-(4-chlorophenyl)-2-hydroxyethylthio]-4-(2,4-dihydroxyphenyl)-1-[4-(5-methylpyridin-3-yl)phenyl]azetidin-2-one] | ≥ 50 |  |  | inhibition in vivo at 0.1 mg/kg [3]: ≥ 50% |
| N#Cc1cncc(-c2ccc(N3C(=O)[C@H](SC[C@H](O)c4ccc(F)cc4)[C@H]3c3ccc(O)cc3)cc2)c1 [Example 18, 5-(4-{(3R,4R)-3-[(2R)-2-(4-fluorophenyl)-2-hydroxyethylthio]-4-(4-hydroxyphenyl)-2-oxoazetidinyl}phenyl)pyridine-3-carbonitrile] | ≥ 50 | ≥ 30 | ≥ 20 |  |
| Cc1cncc(-c2ccc(N3C(=O)[C@H](SC[C@H](O)c4ccc(F)cc4)[C@H]3c3ccc(O)cc3O)cc2)c1 [Example 93, (3R,4R)-3-[(2R)-2-(4-fluorophenyl)-2-hydroxyethylthio]-4-(2,4-dihydroxyphenyl)-1-[4-(5-methylpyridin-3-yl)phenyl]azetidin-2-one] |  | ≥ 30 | ≥ 20 | inhibition in vivo at 0.01 mg/kg [1]: ≥ 30% |
